These results are taken from patent publication US20040166160A1, “Methods and dosage forms with modified viscosity layers” (priority 2003, published 2004).

The conditions of data set [1]: cited from earlier work.
The conditions of data set [2]: FIG. 6. From the text: FIG. 6 illustrates blood plasma concentrations at various times achieved through various means of delivery. This figure illustrates the time necessary to achieve a particular blood plasma concentration.
The conditions of data set [3]: in vivo; cited from earlier work.
For data set [4] the following is noted: in vivo; cited from earlier work. This is another data set of the same source.

Structures can show the parent of a compound that is named as a salt.

As for `CN(C)CCC=C1c2ccccc2C=Cc2ccccc21` [Cyclobenzaprine hydrochloride, cyclobenzaprine hydrochloride], the solubility in alcohol entry in data set [1] (alcohol) is “freely soluble”. Moreover, in data set [1] (hydrocarbon solvents), the “solubility in hydrocarbon solvents” value was “insoluble”. Further, in data set [1] (isopropanol), the solubility in isopropanol entry is “sparingly soluble”. Moreover, in data set [1] (water), the solubility in water result was “freely soluble”.

Turning to `CN(C)CCC=C1c2ccccc2C=Cc2ccccc21` [cyclobenzaprine], the colonic absorption result in data set [2] is “colonic absorption”. For the same compound, the half-life in data set [3] was 24 to 72 h. Also, the reported side effects entry in data set [4] was “sedation and dry mouth”.
